# Results taken from patent publication US10195156B2, “Compounds and compositions for intracellular delivery of agents” (ModernaTX, Inc., priority 2015, dated 2019).
# Experiments:
# [1] = Particle size and polydispersity index of nanoparticle compositions (Zetasizer Nano ZS); type: physicochemical
# Method in brief: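 In 1×PBS, the compositions were sized on a Zetasizer Nano ZS, which also reported their polydispersity index.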
# [2] = Encapsulation efficiency of RNA (QUANT-IT RIBOGREEN RNA assay); type: physicochemical
# Method in brief: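 Nanoparticle samples diluted to ~5 μg/mL RNA in TE buffer (pH 7.5), incubated with or without 2% Triton X-100 solution at 37 °C for 15 min, then RiboGreen added. Fluorescence read at ~480/520 nm, blank-subtracted; free RNA % = intact over Triton-disrupted signal.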
# [3] = pKa of nanoparticle compositions; type: physicochemical
# [4] = tested on: luciferase (Luc) mRNA expression; assay: Expression of Luc induced by sample formulations, whole-body bioluminescence after intravenous administration; type: in vivo; settings: mice, i.v., 0.5 mg/kg
# Method in brief: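 Mice (n=6) dosed intravenously with Luc mRNA nanoparticle formulations at 0.5 mg/kg. Whole-body bioluminescence measured at 3, 6 and 24 h. Standard MC3 formulation and PBS control run alongside.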
# [5] = tested on: modified luciferase expression; assay: Expression of Luc in different organs (liver, lung, spleen, femur) 6 hours after intravenous administration; type: in vivo; settings: i.v., 0.5 mpk
# Protocol: The efficacy of the nanoparticle compositions presented in Tables 1, 1a, 17-1, 19-1, 20-1 and 21-1 was further evaluated by measuring the expression of modified luciferase in the liver, lung, spleen, and femur upon administration of a given composition. Formulations were administered intravenously to mice (n=3) at a dosage of 0.5 mpk and bioluminescence measured after 6 hours. The standard MC3 formulation and a PBS control were also tested.
# IL-6 = assay: Cytokine production induced by sample formulations: IL-6; type: in vivo; settings: mice, i.v., 0.5 mpk, 6 hours; for IL-6: in pg/mL (unit assumed)
# Description: (§1) The introduction of foreign material into a mammalian body induces an innate immune response that promotes cytokine production. Such immune responses to, for example, nanoparticle compositions including therapeutic and/or prophylactic agents, are undesirable. The induction of certain cytokines is thus measured to evaluate the […] of nanoparticle compositions. The concentrations of various cytokines in mice upon intravenous administration of nanoparticle compositions presented in Tables 1, 1a, 17-1, 19-1, 20-1 and 21-1 at a dosage of 0.5 mpk was measured at 6 hours. The standard MC3 formulation and a PBS control were also tested.
# IP-10 = assay: Cytokine production induced by sample formulations: IP-10; type: in vivo; settings: mice, i.v., 0.5 mpk, 6 hours; for IP-10: in pg/mL (unit assumed)
# Description: as §1
# [6] = Table 1, rows without footnote mark
# [7] = Table 20-1, rows without footnote mark
"PDI [1, 7]","Size (nm) [1, 7]","EE (%) [2, 7]","pKa [3, 7]","IL-6 (IL-6; Table 20-4, formula (20-I))","IP-10 (IP-10; Table 20-4, formula (20-I))",PDI ([1]; Table 17-1),Size (nm) ([1]; Table 17-1),EE (%) ([2]; Table 17-1),pKa ([3]; Table 17-1),SMILES,Total Flux 3 hours ([4]; Table 20-2),Total Flux 6 hours ([4]; Table 20-2),Total Flux 24 hours ([4]; Table 20-2),"Total Flux Liver ([5]; Table 20-3, mice, liver)","Total Flux Lung ([5]; Table 20-3, mice)","Total Flux Spleen ([5]; Table 20-3, mice, spleen)",Total Flux 3 hours ([4]; Table 17-2),Total Flux 6 hours ([4]; Table 17-2),Total Flux 24 hours ([4]; Table 17-2),"Total Flux Liver ([5]; Table 17-3, mice, liver)",other results
–,–,–,–,–,–,–,–,–,–,"CCCCCCCCCCCCCCN(CCCCCCCCCCCCCC)CCN(CCCCCCCCCCCCCC)CCN1CCN(CCN(CCCCCCCCCCCCCC)CCCCCCCCCCCCCC)CC1 [Compound 32, N^1-(2-(4-(2-(Ditetradecylamino)ethyl)piperazin-1-yl)ethyl)-N^1,N^2,N^2-tritetradecylethane-1,2-diamine]",–,–,–,–,–,–,–,–,–,–,"PDI [1, 6]: 0.160; Size (nm) ([1]; Table 1, rows without footnote mark (lipid:DOPE:cholesterol:PEG-DMG 40:20:38.5:1.5, Luc mRNA; MC3 standard formulation)): 79.3 nm; EE (%) [2, 6]: 83.6%; pKa [3, 6]: 6.28; Total Flux 3 hours ([4]; Table 2): 6.85E+08; Total Flux 6 hours ([4]; Table 2): 5.88E+08; Total Flux 24 hours ([4]; Table 2): 4.37E+07; Total Flux Femur ([5]; Table 3, mice): 1.02E+05; Total Flux Liver ([5]; Table 3, mice, liver): 8.36E+07; Total Flux Lung ([5]; Table 3, mice): 6.75E+05; Total Flux Spleen ([5]; Table 3, mice, spleen): 9.38E+05; IL-6 (IL-6; Table 4): 174; IP-10 (IP-10; Table 4): 727"
0.038,90.6 nm,96.9%,6.06,67.1,1678.6,–,–,–,–,"CCCCCCCCCCCCCCN(CCO)CCN(CCCCCCCCCCCC)CCCCCCCCCCCC [Compound 20-24, 2-((2-(Didodecylamino)ethyl)(tetradecyl)amino)ethan-1-ol]",7.47E+08,1.64E+08,9.72E+06,4.05E+07,1.08E+05,1.11E+06,–,–,–,–,–
0.130,64.5 nm,95.9%,6.22,152.1,271.1,–,–,–,–,"CCCCCCCCCCCCN(CCCCCCCCCCCC)CCN(CCO)CCCCCCCC(=O)OC(CCCCCCCC)CCCCCCCC [Compound 20-9, Heptadecan-9-yl 8-((2-(didodecylamino)ethyl)(2-hydroxyethyl)amino)octanoate]",3.65E+08,6.91E+08,4.81E+07,1.57E+08,1.30E+06,5.11E+06,–,–,–,–,"particle size, rank within the named table (in words) ([1]; comparison amongst compositions): smallest particles; Total Flux Femur ([5]; Table 20-3, mice): 2.89E+05"
–,–,–,–,–,–,0.095,117.9 nm,82.1%,6.69,"CCCCC/C=C\C/C=C\CCCCCCCCN(CCO)CCCCCCCCC [Compound 17-3, 2-(Nonyl((9Z,12Z)-octadeca-9,12-dien-1-yl)amino)ethan-1-ol]",–,–,–,–,–,–,5.58E+05,1.38E+06,9.90E+05,2.51E+05,"Total Flux Lung ([5]; Table 17-3, mice): 1.56E+04; Total Flux Spleen ([5]; Table 17-3, mice, spleen): 1.02E+05; IL-6 (IL-6; Table 17-4): 6.97; IL-6 induction, rank within the named table (in words) (IL-6): lowest IL-6 levels; IP-10 (IP-10; Table 17-4): 66.8; IP-10 induction, rank or comparison with IL-6 (in words) (IP-10): lowest IP-10 levels"
–,–,–,–,–,–,0.137,88.4 nm,94.2%,6.92,"CCCCC/C=C\C/C=C\CCCCCCCCN(CCO)CCCCCCCCCCCCCC [Compound 17-5, 2-(((9Z,12Z)—Octadeca-9,12-dien-1-yl)(tetradecyl)amino)ethan-1-ol]",–,–,–,–,–,–,6.64E+08,8.54E+08,5.97E+07,1.17E+08,"Total Flux Lung ([5]; Table 17-3, mice): 8.13E+05; Total Flux Spleen ([5]; Table 17-3, mice, spleen): 2.13E+06; total flux in the liver, rank within the named table (in words) ([5]; mice, liver): somewhat comparable to those including MC3; total flux in the spleen, rank within the named table (in words) ([5]; mice, spleen): highest; IL-6 (IL-6; Table 17-4): 49.2; IP-10 (IP-10; Table 17-4): 300"
